Test results published in ChEMBL document CHEMBL1152583 (Bioorg Med Chem, 2009).

Columns and labels:
[1] = biological target: Acetylcholinesterase (Homo sapiens, UniProt P22303)
Description: Inhibition of human AChE by Ellman's method

[2] = biological target: Acetylcholinesterase (Torpedo californica, UniProt P04058)
Description: Inhibition of Torpedo california AChE by Ellman's method

[3] = biological target: Acetylcholinesterase (Torpedo californica) (UniProt P04058); assay: Ratio of IC50 for drug to P0407 for Torpedo california AChE by Ellman's method; conditions: Tetronarce californica
[4] = biological target: Acetylcholinesterase (Torpedo californica) (UniProt P04058); assay: Inhibition of Torpedo california AChE at 0.125 nM by Ellman's method; conditions: Tetronarce californica
[5] = biological target: Acetylcholinesterase (Torpedo californica) (UniProt P04058); assay: Inhibition of Torpedo california AChE at 15.6 pM by Ellman's method; conditions: Tetronarce californica
[6] = biological target: Acetylcholinesterase (Torpedo californica) (UniProt P04058); assay: Inhibition of Torpedo california AChE at 62.5 pM by Ellman's method; conditions: Tetronarce californica
[7] = biological target: Acetylcholinesterase (Torpedo californica) (UniProt P04058); conditions: Tetronarce californica; 60.5 nM
Description: Inhibition of Torpedo california AChE at 60.5 nM by Ellman's method

[8] = biological target: Acetylcholinesterase (Torpedo californica) (UniProt P04058); assay: Inhibition of Torpedo california AChE at 31.3 pM by Ellman's method; conditions: Tetronarce californica
[9] = biological target: Acetylcholinesterase (Torpedo californica) (UniProt P04058); assay: Inhibition of Torpedo california AChE at 7.81 pM by Ellman's method; conditions: Tetronarce californica
[10] = biological target: Acetylcholinesterase (Torpedo californica) (UniProt P04058); assay: Inhibition of Torpedo california AChE at 5 nM by Ellman's method; conditions: Tetronarce californica
[11] = biological target: Acetylcholinesterase (Torpedo californica) (UniProt P04058); assay: Inhibition of Torpedo california AChE at 0.313 nM by Ellman's method; conditions: Tetronarce californica
[12] = biological target: Acetylcholinesterase (Torpedo californica) (UniProt P04058); assay: Inhibition of Torpedo california AChE at 1.25 nM by Ellman's method; conditions: Tetronarce californica
[13] = biological target: Acetylcholinesterase (Torpedo californica) (UniProt P04058); assay: Inhibition of Torpedo california AChE at 0.625 nM by Ellman's method; conditions: Tetronarce californica
[14] = biological target: Acetylcholinesterase (Torpedo californica) (UniProt P04058); assay: Inhibition of Torpedo california AChE at 2.5 nM by Ellman's method; conditions: Tetronarce californica
[15] = biological target: Acetylcholinesterase (Torpedo californica) (UniProt P04058); assay: Inhibition of Torpedo california AChE at 0.25 nM by Ellman's method; conditions: Tetronarce californica
[16] = biological target: Acetylcholinesterase (Torpedo californica) (UniProt P04058); assay: Inhibition of Torpedo california AChE at 0.5 nM by Ellman's method; conditions: Tetronarce californica
[17] = biological target: Acetylcholinesterase (Torpedo californica) (UniProt P04058); assay: Inhibition of Torpedo california AChE at 15.1 nM by Ellman's method; conditions: Tetronarce californica
[18] = biological target: Acetylcholinesterase (Torpedo californica) (UniProt P04058); assay: Inhibition of Torpedo california AChE at 30.3 nM by Ellman's method; conditions: Tetronarce californica
[19] = biological target: Acetylcholinesterase (Torpedo californica) (UniProt P04058); assay: Inhibition of Torpedo california AChE at 7.56 nM by Ellman's method; conditions: Tetronarce californica
[20] = biological target: Acetylcholinesterase (Torpedo californica) (UniProt P04058); conditions: Tetronarce californica; 5 uM
Description: Inhibition of Torpedo california AChE at 5 uM by Ellman's method

[21] = biological target: Acetylcholinesterase (Torpedo californica) (UniProt P04058); conditions: Tetronarce californica; 0.313 uM
Description: Inhibition of Torpedo california AChE at 0.313 uM by Ellman's method

[22] = biological target: Acetylcholinesterase (Torpedo californica) (UniProt P04058); conditions: Tetronarce californica; 1.25 uM
Description: Inhibition of Torpedo california AChE at 1.25 uM by Ellman's method

[23] = biological target: Acetylcholinesterase (Torpedo californica) (UniProt P04058); conditions: Tetronarce californica; 25 uM
Description: Inhibition of Torpedo california AChE at 25 uM by Ellman's method

[24] = biological target: Acetylcholinesterase (Torpedo californica) (UniProt P04058); conditions: Tetronarce californica; 0.625 uM
Description: Inhibition of Torpedo california AChE at 0.625 uM by Ellman's method

Acetylcholinesterase (Torpedo californica), sequence (P04058 22-564 limits assumed): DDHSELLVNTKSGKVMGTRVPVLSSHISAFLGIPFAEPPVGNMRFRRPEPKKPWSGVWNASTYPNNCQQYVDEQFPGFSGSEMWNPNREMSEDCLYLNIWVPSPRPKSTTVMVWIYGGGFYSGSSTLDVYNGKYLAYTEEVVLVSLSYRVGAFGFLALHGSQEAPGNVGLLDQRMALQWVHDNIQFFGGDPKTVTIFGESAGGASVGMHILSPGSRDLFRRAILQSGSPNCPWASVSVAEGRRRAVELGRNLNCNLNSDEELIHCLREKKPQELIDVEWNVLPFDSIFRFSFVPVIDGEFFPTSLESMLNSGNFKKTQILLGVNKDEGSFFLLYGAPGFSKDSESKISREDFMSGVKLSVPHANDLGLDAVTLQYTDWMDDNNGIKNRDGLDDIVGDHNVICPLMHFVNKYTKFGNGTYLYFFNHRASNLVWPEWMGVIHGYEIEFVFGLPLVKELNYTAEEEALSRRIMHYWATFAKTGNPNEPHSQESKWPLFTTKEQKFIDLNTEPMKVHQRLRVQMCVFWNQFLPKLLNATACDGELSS
Acetylcholinesterase (Torpedo californica, UniProt P04058), sequence (P04058 whole entry): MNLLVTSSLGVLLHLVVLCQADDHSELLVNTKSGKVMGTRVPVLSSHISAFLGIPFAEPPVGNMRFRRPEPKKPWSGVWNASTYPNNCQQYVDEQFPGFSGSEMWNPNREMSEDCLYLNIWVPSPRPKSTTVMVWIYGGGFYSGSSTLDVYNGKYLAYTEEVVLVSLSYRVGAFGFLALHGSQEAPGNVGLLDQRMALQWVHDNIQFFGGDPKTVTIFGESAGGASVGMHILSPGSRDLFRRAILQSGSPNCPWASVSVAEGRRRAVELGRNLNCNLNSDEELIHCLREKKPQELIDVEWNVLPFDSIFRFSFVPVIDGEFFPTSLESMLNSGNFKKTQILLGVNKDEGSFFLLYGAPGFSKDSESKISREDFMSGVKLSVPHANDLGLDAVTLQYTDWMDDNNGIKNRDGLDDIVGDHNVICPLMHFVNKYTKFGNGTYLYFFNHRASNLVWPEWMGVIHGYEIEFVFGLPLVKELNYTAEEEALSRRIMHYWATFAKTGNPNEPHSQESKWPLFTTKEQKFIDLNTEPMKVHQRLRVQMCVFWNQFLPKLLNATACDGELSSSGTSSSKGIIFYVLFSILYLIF
Acetylcholinesterase (Homo sapiens, UniProt P22303), sequence (P22303 whole entry): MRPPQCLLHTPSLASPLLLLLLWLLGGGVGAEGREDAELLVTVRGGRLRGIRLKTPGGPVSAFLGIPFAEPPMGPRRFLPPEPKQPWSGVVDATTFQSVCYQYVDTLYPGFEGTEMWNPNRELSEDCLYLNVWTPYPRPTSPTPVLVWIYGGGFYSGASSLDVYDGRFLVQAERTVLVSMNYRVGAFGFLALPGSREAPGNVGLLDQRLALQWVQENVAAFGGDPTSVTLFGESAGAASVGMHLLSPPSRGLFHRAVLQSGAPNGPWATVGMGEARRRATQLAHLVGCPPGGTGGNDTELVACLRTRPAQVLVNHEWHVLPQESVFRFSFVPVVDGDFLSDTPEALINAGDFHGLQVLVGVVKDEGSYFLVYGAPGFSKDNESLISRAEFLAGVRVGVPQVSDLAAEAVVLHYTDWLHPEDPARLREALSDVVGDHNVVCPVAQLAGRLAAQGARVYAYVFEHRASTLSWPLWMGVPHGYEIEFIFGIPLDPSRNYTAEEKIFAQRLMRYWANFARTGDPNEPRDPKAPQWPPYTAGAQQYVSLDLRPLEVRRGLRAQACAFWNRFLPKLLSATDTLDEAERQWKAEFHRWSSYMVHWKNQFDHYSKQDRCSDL

| Compound | IC50 [1] | IC50 [2] | Ratio [3] | inhibition [4] | inhibition [5] | inhibition [6] | inhibition [8] | inhibition [9] | other results |
| --- | --- | --- | --- | --- | --- | --- | --- | --- | --- |
| C=CCOc1ccc(/C=N/[C@@]23CC(C)=C[C@@H](Cc4[nH]c(=O)ccc42)/C3=C\C)cc1 | 31 nM | 13.9 nM |  |  |  |  |  |  |  |
| C/C=C1\[C@H]2C=C(C)C[C@]1(/N=C/c1cc(OC)cc(OC)c1)c1ccc(=O)[nH]c1C2 | 29 nM | 0.02 nM | 1060 | 90.8% | 41.3% | 80.6% | 61.7% | 28.5% | inhibition [7]: 73.7% |
| C/C=C1\[C@H]2C=C(C)C[C@]1(/N=C/C=C/c1ccccc1)c1ccc(=O)[nH]c1C2 | 24 nM | 1.81 nM |  |  |  |  |  |  | inhibition [10]: 83.4%; inhibition [11]: 5.5%; inhibition [12]: 37.1%; inhibition [13]: 16.7%; inhibition [14]: 62.5% |
| C/C=C1\[C@H]2C=C(C)C[C@]1(/N=C/c1ccc(O)c(OCC)c1)c1ccc(=O)[nH]c1C2 | 25 nM | 0.842 nM |  |  |  |  |  |  | inhibition [11]: 28.2%; inhibition [12]: 56.2%; inhibition [15]: 68.1%; inhibition [16]: 84%; inhibition [13]: 43.6% |
| C/C=C1\[C@H]2C=C(C)C[C@]1(/N=C/c1ccccc1OS(=O)(=O)O)c1ccc(=O)[nH]c1C2 | 41 nM | 18.2 nM |  |  |  |  |  |  |  |
| CNC(=O)Oc1ccc2c(c1)[C@]1(C)CCN(C)[C@@H]1N2C |  |  |  |  |  |  |  |  | inhibition [17]: 45.5%; inhibition [18]: 64.3%; inhibition [19]: 24.7% |
| C/C=C1\[C@H]2C=C(C)C[C@]1(/N=C/C(=C/c1ccccc1)CCCCC)c1ccc(=O)[nH]c1C2 | 51 nM | 796 nM |  |  |  |  |  |  | inhibition [20]: 86%; inhibition [21]: 30.4%; inhibition [22]: 58.6%; inhibition [23]: 79%; inhibition [24]: 44.2% |
| C/C=C1\[C@H]2C=C(C)C[C@]1(/N=C/c1ccc(N(C)C)cc1)c1ccc(=O)[nH]c1C2 | 31 nM | 23.3 nM |  |  |  |  |  |  |  |
| C/C=C1\[C@H]2C=C(C)C[C@]1(/N=C/c1ccc(C#N)cc1)c1ccc(=O)[nH]c1C2 | 22 nM | 0.0412 nM | 517 | 89.3% | 26% | 79.4% | 38.7% | 12.6% |  |
| C/C=C1\[C@H]2C=C(C)C[C@]1(/N=C/c1ccc(OC)cc1OC)c1ccc(=O)[nH]c1C2 | 84 nM | 0.0446 nM | 477 | 76.5% | 22.1% | 62.8% | 36.2% | 15.9% |  |
